Measurements as given in ChEMBL document CHEMBL5532732, “Structure-Based Rational Design of Constrained Peptides as TIM-3 Inhibitors” (ACS Med Chem Lett, 2024).
Active and inactive are the calls of the source. The calls are words filed in the database; no cut-off is given here. Peptide text beside a SMILES is read from it.

Key:
[1] = species on record: Homo sapiens; conditions: dose 250.0 nM
Description: Inhibition of recombinant human Gal-9 to biotinylated recombinant human TIM3 protein-protein interaction at 250 nM by ELISA method

[2] = Distribution coefficient, log D of the compound at pH 7.4 by shake flask method; type: physicochemical; conditions: octanol/water
[3] = Stability in simulated Intestinal fluids at pH 6.5 assessed as half life; type: ADME; conditions: simulated intestinal fluid
[4] = system: PBMC; experiment: Induction of cytokine production in human PBMC cells assessed as increase in IFN-gamma level at 1 uM in the presence of TIM3 stimulation by ELISA method; type: functional, cell-based
[5] = Apparent permeability across apical to basolateral in human Caco-2 cells; type: ADME, cell-based
[6] = Apparent permeability across basolateral to apical in human Caco-2 cells; type: ADME, cell-based
[7] = Stability in rat liver microsomes assessed as half life; type: ADME, Microsome
[8] = system: Kasumi 1; experiment: Antiproliferative activity against human Kasumi 1 cells at 1 uM; type: functional, cell-based
[9] = Stability in simulated gastric fluids at pH 1.6 assessed as half life; type: ADME; conditions: simulated gastric fluid
[10] = Stability in human plasma assessed as compound remaining incubated for 2 hrs; type: ADME, cell-free; conditions: read-out: Stability

CC[C@H](C)[C@@H]1NC(=O)[C@H](Cc2ccc(O)cc2)NC(=O)[C@H](CS)NC(=O)[C@H](CO)NC(=O)[C@H](Cc2ccccc2)NC(=O)CNC(=O)[C@H](CO)NC(=O)[C@H](CO)NC(=O)[C@H](CO)NC(=O)[C@H](CS)NC(=O)[C@H](Cc2ccc(O)cc2)NC(=O)[C@H](CO)NC1=O (cyclo(CSSSGFSCYISY))
inhibition [1]: Active
logD [2]: 3.52
half-life [3]: 16.4 h
Activity [4]: Active
Papp A→B [5]: 8.16 ×10⁻⁶ cm/s
Papp B→A [6]: 12.5 ×10⁻⁶ cm/s
half-life [7]: 12.4 h
Activity [8]: inactive
half-life [9]: 8.7 h
remaining at 2 h [10]: 95.4%
